Source: ChEMBL document CHEMBL1143306, “3-amido-4-anilinoquinolines as CSF-1R kinase inhibitors 2: Optimization of the PK profile” (Bioorg Med Chem Lett, 2009)
≈ marks a conversion by molar mass, not a printed value.

What was measured:
[1] = system: Mus musculus; assay: Inhibition of phosphorylated CSF1R level in 3T3/CSF1R mutant cells xenografted nude mouse at 25 mg/kg, po after 6 hrs by ELISA; type: functional
[2] = system: Mus musculus; assay: Inhibition of phosphorylated CSF1R level in 3T3/CSF1R mutant cells xenografted nude mouse at 25 mg/kg, po after 2 hrs by ELISA; type: functional
[3] = molecular target: Ribosomal protein S6 kinase alpha-1 (Homo sapiens) (UniProt Q15418); assay: Inhibition of RSK1 at 1 uM
[4] = Clearance in rat at 3 mg/kg, iv and 10 mg/kg, po; type: ADME, organism-based; details: in vivo
[5] = molecular target: ALK tyrosine kinase receptor (Homo sapiens) (UniProt Q9UM73); assay: Inhibition of ALK at 1 uM
[6] = molecular target: T1, NUAK family SNF1-like kinase 1 (Homo sapiens) (UniProt O60285); assay: Inhibition of ARK5 at 1 uM
T1 sequence (whole entry): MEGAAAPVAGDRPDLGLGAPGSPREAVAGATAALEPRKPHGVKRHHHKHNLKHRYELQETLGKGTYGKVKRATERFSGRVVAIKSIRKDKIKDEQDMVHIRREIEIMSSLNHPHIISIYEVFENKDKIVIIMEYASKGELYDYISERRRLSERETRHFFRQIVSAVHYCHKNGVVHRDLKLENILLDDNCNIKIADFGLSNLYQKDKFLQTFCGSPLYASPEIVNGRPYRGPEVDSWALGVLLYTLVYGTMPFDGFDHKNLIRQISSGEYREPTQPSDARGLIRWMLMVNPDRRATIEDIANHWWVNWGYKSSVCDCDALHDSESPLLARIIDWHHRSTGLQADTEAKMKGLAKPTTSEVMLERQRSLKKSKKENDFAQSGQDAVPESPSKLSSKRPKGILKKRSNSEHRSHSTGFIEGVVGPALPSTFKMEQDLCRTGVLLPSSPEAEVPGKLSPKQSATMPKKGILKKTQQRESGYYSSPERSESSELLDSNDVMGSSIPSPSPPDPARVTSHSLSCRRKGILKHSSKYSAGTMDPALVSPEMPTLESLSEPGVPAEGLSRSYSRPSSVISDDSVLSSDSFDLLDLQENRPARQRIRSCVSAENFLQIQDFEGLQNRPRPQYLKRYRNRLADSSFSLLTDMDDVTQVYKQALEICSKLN

[7] = Bioavailability in rat at 3 mg/kg, iv and 10 mg/kg, po; type: ADME, organism-based; details: in vivo
[8] = Half life in rat at 3 mg/kg, iv and 10 mg/kg, po; type: ADME, organism-based; details: in vivo
[9] = molecular target: T2, Macrophage colony-stimulating factor 1 receptor (Homo sapiens, UniProt P07333); assay: Inhibition of CSF1R at 1 uM
[10] = Plasma protein binding assessed as percentage unbound
[11] = Volume of distribution at steady state in rat at 3 mg/kg, iv and 10 mg/kg, po; type: ADME, organism-based; details: in vivo, read-out: Vdss
[12] = Aqueous solubility of the compound; type: physicochemical; details: buffer
[13] = molecular target: T2, Macrophage colony-stimulating factor 1 receptor; assay: Inhibition of CSF1R
[14] = system: NIH3T3; assay: Antiproliferative activity against mouse 3T3 cells expressing human CSF1R after 72 hrs by Celltiter assay; type: functional

T2 sequence (P07333 whole entry): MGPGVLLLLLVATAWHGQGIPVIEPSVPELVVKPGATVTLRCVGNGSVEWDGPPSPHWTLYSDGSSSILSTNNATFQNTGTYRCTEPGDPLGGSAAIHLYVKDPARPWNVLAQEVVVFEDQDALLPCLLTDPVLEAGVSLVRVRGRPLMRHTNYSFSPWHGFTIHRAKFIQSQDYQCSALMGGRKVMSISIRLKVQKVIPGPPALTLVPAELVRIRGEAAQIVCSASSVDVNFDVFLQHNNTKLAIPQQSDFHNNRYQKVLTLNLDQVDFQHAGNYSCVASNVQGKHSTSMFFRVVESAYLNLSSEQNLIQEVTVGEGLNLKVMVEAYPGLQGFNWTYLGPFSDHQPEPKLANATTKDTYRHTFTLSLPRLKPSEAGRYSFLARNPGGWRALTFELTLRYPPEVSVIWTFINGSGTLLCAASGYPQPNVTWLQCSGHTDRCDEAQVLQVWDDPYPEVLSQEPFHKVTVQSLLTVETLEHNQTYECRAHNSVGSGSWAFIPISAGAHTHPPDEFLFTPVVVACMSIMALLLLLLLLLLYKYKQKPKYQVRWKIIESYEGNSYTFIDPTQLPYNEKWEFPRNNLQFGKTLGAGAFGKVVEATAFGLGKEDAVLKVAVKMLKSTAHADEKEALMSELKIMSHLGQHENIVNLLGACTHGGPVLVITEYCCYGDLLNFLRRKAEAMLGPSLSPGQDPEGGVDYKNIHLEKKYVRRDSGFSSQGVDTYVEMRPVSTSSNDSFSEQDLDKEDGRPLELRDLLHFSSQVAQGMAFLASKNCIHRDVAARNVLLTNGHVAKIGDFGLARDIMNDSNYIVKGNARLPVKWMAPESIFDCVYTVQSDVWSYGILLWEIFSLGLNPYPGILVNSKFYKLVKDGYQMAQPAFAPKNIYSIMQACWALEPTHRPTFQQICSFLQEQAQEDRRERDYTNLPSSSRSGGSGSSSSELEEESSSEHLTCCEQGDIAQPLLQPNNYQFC
Sequence of ALK tyrosine kinase receptor (Homo sapiens) (Q9UM73 19-1620 limits assumed): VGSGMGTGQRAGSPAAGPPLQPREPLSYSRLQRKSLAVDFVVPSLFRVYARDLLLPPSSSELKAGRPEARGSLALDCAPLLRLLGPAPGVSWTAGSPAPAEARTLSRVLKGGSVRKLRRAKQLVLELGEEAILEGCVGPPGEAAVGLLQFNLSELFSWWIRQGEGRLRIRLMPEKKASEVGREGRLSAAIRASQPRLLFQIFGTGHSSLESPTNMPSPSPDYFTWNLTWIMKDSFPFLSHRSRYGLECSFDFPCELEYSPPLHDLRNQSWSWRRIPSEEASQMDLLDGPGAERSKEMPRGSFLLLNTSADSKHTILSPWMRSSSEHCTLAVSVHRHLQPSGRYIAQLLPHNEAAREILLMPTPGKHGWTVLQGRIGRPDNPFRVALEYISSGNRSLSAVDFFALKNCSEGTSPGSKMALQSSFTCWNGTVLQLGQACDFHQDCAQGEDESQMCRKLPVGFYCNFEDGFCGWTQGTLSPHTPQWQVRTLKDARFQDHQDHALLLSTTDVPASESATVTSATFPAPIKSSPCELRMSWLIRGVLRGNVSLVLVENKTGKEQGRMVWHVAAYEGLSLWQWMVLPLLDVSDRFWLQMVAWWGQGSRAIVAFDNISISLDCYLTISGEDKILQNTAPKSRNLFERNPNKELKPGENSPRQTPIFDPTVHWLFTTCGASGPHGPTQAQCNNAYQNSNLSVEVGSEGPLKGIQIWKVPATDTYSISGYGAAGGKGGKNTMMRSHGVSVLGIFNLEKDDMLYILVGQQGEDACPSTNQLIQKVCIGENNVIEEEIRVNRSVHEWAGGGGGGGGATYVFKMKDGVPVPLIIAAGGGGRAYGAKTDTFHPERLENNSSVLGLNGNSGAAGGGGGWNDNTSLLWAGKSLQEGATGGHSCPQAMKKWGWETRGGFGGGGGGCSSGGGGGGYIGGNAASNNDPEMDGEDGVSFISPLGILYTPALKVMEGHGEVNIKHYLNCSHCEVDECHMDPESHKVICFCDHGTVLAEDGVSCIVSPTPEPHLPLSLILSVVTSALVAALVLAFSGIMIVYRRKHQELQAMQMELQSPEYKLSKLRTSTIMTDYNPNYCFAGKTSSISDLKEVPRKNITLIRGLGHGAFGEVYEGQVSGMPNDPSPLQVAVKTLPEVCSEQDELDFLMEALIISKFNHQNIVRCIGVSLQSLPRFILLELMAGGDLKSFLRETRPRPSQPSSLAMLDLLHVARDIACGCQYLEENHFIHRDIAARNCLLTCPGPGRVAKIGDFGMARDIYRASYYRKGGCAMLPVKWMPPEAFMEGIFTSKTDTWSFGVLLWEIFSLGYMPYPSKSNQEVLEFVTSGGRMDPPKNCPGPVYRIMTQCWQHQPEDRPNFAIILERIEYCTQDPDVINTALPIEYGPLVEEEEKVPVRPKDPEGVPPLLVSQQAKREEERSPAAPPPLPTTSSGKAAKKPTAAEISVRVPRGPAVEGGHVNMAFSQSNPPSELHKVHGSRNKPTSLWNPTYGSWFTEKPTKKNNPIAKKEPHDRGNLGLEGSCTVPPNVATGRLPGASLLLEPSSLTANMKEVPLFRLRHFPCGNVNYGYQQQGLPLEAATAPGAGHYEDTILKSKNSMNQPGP
Sequence of Ribosomal protein S6 kinase alpha-1 (Homo sapiens) (Q15418 whole entry): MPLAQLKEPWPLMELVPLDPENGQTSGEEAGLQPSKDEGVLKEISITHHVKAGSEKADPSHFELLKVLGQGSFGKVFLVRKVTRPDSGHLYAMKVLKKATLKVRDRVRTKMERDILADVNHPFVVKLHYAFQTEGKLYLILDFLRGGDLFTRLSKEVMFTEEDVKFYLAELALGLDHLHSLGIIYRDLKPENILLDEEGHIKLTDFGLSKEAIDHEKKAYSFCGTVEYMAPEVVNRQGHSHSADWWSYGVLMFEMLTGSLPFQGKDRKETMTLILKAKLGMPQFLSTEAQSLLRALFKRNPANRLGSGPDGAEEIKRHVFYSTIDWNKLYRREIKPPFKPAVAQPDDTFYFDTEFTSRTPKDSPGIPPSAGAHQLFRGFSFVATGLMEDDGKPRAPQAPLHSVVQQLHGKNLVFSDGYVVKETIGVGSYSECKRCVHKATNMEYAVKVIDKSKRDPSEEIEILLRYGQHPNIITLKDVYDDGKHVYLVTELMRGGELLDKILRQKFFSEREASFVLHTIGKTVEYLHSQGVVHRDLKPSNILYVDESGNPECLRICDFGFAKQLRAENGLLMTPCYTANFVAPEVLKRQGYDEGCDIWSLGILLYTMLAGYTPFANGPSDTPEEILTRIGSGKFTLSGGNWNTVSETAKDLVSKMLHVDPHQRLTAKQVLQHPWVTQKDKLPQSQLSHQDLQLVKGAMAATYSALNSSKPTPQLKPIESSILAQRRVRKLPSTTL

Row | Compound | inhibition [3] [%] | clearance [4] [mL/min/kg] | inhibition [5] [%] | inhibition [6] [%] | bioavailability [7] [%] | half-life [8] [h] | inhibition [9] [%] | fraction unbound [10] | Vd [11] [L/kg] | solubility [12] [µM] | IC50 [13] [nM] | inhibition in vivo at 25 mg/kg [1] [%] | inhibition in vivo at 25 mg/kg [2] [%] | Activity [14] [µM]
1 | CCOc1cc2ncc(C(N)=O)c(Nc3ccc(F)cc3F)c2cc1N1CCN(C)CC1 | 21 | 12 | 23 | 51 | 100 | 2.1 | 96 | 0.11 | 2.5 | 290 (≈ 128 µg/mL) | 6 | 65 | 90 | 
2 | CN1CCN(c2cc3c(Nc4cccc(Cl)c4Cl)c(C(N)=O)cnc3cc2F)CC1 |  | 23 |  |  |  | 0.8 |  | 0.044 | 1.1 | 8 (≈ 3.59 µg/mL) | 3 |  |  | 0.44
3 | CN1CCN(c2ccc3ncc(C(N)=O)c(Nc4ccc(F)cc4F)c3c2)CC1 |  | 45 |  |  | 21 | 1.9 |  | 0.26 | 7.6 | 970 (≈ 386 µg/mL) | 110 |  |  | 3.9
4 | CN1CCN(c2ccc3ncc(C(N)=O)c(Nc4cccc(Cl)c4Cl)c3c2)CC1 |  | 190 |  |  |  | 0.7 |  | 0.046 | 5.9 | 44 (≈ 18.9 µg/mL) | 8 |  |  | 0.71
5 | CCOc1cc2ncc(C(N)=O)c(Nc3cccc(Cl)c3Cl)c2cc1N1CCN(C)CC1 |  | 57 |  |  | 100 | 0.9 |  | 0.02 | 3.5 | 50 (≈ 23.7 µg/mL) | < 3 | 45 | 75 | 

The next lines start with results.

Row | inhibition [3] [%] | clearance [4] [mL/min/kg] | inhibition [5] [%] | inhibition [6] [%] | bioavailability [7] [%] | half-life [8] [h] | inhibition [9] [%] | fraction unbound [10] | Vd [11] [L/kg] | solubility [12] [µM] | IC50 [13] [nM] | Compound | inhibition in vivo at 25 mg/kg [1] [%] | inhibition in vivo at 25 mg/kg [2] [%] | Activity [14] [µM]
6 |  | 20 |  |  | 13 | 1.1 |  | 0.24 | 1.4 | 71 (≈ 29.5 µg/mL) | 54 | CN1CCN(c2cc3c(Nc4ccc(F)cc4F)c(C(N)=O)cnc3cc2F)CC1 |  |  | 4.2
7 |  | 72 |  |  |  | 1.7 |  | 0.032 | 8.7 | 160 (≈ 73.7 µg/mL) | 3 | COc1cc2ncc(C(N)=O)c(Nc3ccc(Cl)cc3Cl)c2cc1N1CCN(C)CC1 |  |  | 0.64
8 |  | 15 |  |  | 90 | 1.8 |  | 0.25 | 2.3 | > 1000 | 6 | COc1cc2ncc(C(N)=O)c(Nc3ccc(F)cc3F)c2cc1N1CCN(C)CC1 |  |  | 1
9 |  | 76 |  |  | 110 | 2.5 |  | 0.045 | 6.8 | 810 (≈ 373 µg/mL) | < 3 | COc1cc2ncc(C(N)=O)c(Nc3cccc(Cl)c3Cl)c2cc1N1CCN(C)CC1 |  |  | 0.06
